Structures can show the parent of a compound that is named as a salt.
Key:
Conditions in all cases: 72 h
HepG2 [1] = experiment: drug sensitivity score (DSS) for viability; higher = more toxic; extreme values may be limits of the assay
Calu-3 [2] = experiment: as above
Caco-2 [3] = experiment: as above
Vero E6 [4] = experiment: as above
U2OS [5] = experiment: as above
HepG2 [6] = experiment: cell viability relative to DMSO; higher = less toxic
Calu-3 [7] = experiment: as above
Caco-2 [8] = experiment: as above
Vero E6 [9] = experiment: as above
U2OS [10] = experiment: as above
HepG2 [11] = experiment: relative viability EC50 (midpoint between 100% and the lowest measured viability); higher = less toxic
Caco-2 [12] = experiment: as above
Vero E6 [13] = experiment: as above
U2OS [14] = experiment: as above

| Compound | drug sensitivity score (HepG2 [1]) | drug sensitivity score (Calu-3 [2]) | drug sensitivity score (Caco-2 [3]) | drug sensitivity score (Vero E6 [4]) | drug sensitivity score (U2OS [5]) | cell viability (HepG2 [6]; 1 nM) | cell viability (HepG2 [6]; 10 nM) | cell viability (HepG2 [6]; 100 nM) | cell viability (HepG2 [6]; 1000 nM) | cell viability (HepG2 [6]; 10000 nM) | cell viability (Calu-3 [7]; 1 nM) | cell viability (Calu-3 [7]; 10 nM) | cell viability (Calu-3 [7]; 100 nM) | cell viability (Calu-3 [7]; 1000 nM) | cell viability (Calu-3 [7]; 10000 nM) | cell viability (Caco-2 [8]; 1 nM) | cell viability (Caco-2 [8]; 10 nM) | cell viability (Caco-2 [8]; 100 nM) | cell viability (Caco-2 [8]; 1000 nM) | cell viability (Caco-2 [8]; 10000 nM) | cell viability (Vero E6 [9]; 1 nM) | cell viability (Vero E6 [9]; 10 nM) | cell viability (Vero E6 [9]; 100 nM) | cell viability (Vero E6 [9]; 1000 nM) | cell viability (Vero E6 [9]; 10000 nM) | cell viability (U2OS [10]; 1 nM) | cell viability (U2OS [10]; 10 nM) | cell viability (U2OS [10]; 100 nM) | cell viability (U2OS [10]; 1000 nM) | cell viability (U2OS [10]; 10000 nM) | relative viability EC50 (HepG2 [11]) | relative viability EC50 (Caco-2 [12]) | relative viability EC50 (Vero E6 [13]) | relative viability EC50 (U2OS [14]) |
| --- | --- | --- | --- | --- | --- | --- | --- | --- | --- | --- | --- | --- | --- | --- | --- | --- | --- | --- | --- | --- | --- | --- | --- | --- | --- | --- | --- | --- | --- | --- | --- | --- | --- | --- |
| N=c1ccn2c(n1)O[C@H]1[C@H](O)[C@@H](CO)O[C@H]12 [Cyclocytidine HCl] | 15 | 2.7 | 3.7 | 4 | 1.4 | 104% | 103% | 74.1% | 38% | 37.7% | 91.5% | 99.2% | 101% | 93% | 65.9% | 88.4% | 99.2% | 83.1% | 80.6% | 77.8% | 98.1% | 97.1% | 98.5% | 87.4% | 58.3% | 95.1% | 99.9% | 99.8% | 97.2% | 74.8% | 115 nM | > 10000 nM |  |  |
| CC(CNC(=O)c1cccnc1)NC(=O)c1cccnc1 (stereo unspecified) [nicaraven] | 0 |  | 0 | 0 | 0 | 94.7% | 106% | 90.8% | 101% | 98.9% |  |  |  |  |  | 97.3% | 103% | 94.9% | 97.6% | 89.4% | 93.8% | 99.1% | 101% | 97.3% | 97.7% | 97% | 97.2% | 98.7% | 99.8% | 92.1% | > 10000 nM | > 10000 nM | > 10000 nM | > 10000 nM |
| COc1cccc(-c2cc(NCc3ccc4c(c3)OCO4)nc(N)n2)c1 [BML-284] | 9.8 | 5.8 | 7.3 | 12.8 | 10.3 | 97.7% | 97.2% | 93.9% | 52.9% | 30.5% | 104% | 92.9% | 102% | 66.9% | 62.4% | 104% | 93.4% | 102% | 62.4% | 46.6% | 102% | 99.9% | 101% | 29.8% | 27.6% | 92.8% | 97% | 95.8% | 49.8% | 27.7% | 572 nM | 707 nM | 349 nM | 590 nM |
| O=C(CCCN1CC=C(n2c(=O)[nH]c3ccccc32)CC1)c1ccc(F)cc1 [droperidol] | 0 |  |  |  |  | 116% | 113% | 106% | 108% | 89.1% |  |  |  |  |  |  |  |  |  |  |  |  |  |  |  |  |  |  |  |  | > 10000 nM |  |  |  |

Reference: the supplement of paper PMC13380429
